From patent US10213415B2, “Compounds as opioid receptor modulators” (JANSSEN PHARMACEUTICA NV, priority 2004, dated 2019)
Where two headings read alike, the source gives them in different places.

Columns and labels:
[1] = tested on: novel environment-stressed mice; assay: In Vivo Assay-Stress-Induced Fecal Output (Fecal Output for 1 hr); design: species or system mouse; conditions: for Fecal Output (# pellets) cpd: novel environment-stressed mice; for Fecal Output (# pellets) cpd / response vs control in vivo at 30 mg/kg / Fecal Output cpd % control / Fecal Output cpd % NES / response vs control in vivo at 10 mg/kg: 1 hr; for response vs control in vivo at 30 mg/kg / response vs control in vivo at 10 mg/kg: Mus musculus, po, 1 h; for # of pellets, Compound (m) 3.0 / Fecal pellet output, Compound (% control) 3.0 / Fecal pellet output, Compound (% NES) 3.0: dose 3.0, oral; for # of pellets, Compound (m) 3.0 / Fecal pellet output, Compound (% control) 3.0 / # of pellets, Compound (m) 10.0 / Fecal pellet output, Compound (% control) 10.0 / # of pellets, Compound (m) 30.0 / Fecal pellet output, Compound (% control) 30.0: NES mice; for # of pellets, Compound (m) 3.0 / # of pellets, Compound (m) 10.0 / # of pellets, Compound (m) 30.0: fecal output 1 hr; for Fecal pellet output, Compound (% control) 3.0 / Fecal pellet output, Compound (% control) 10.0 / Fecal pellet output, Compound (% control) 30.0: vs acclimated control; for Fecal pellet output, Compound (% NES) 3.0 / Fecal pellet output, Compound (% NES) 10.0 / Fecal pellet output, Compound (% NES) 30: vs vehicle NES group; for # of pellets, Compound (m) 10.0 / Fecal pellet output, Compound (% control) 10.0 / Fecal pellet output, Compound (% NES) 10.0: dose 10.0, oral; for # of pellets, Compound (m) 30.0 / Fecal pellet output, Compound (% control) 30.0: dose 30.0, oral; for Fecal pellet output, Compound (% NES) 30: dose 30, oral
Excerpt: This assay evaluates the fecal output in novel environment-stressed mice to that of acclimated controls.
Methods: Adult, male, Crl:CD-1(ICR) mice, weighing ˜30-35 g were used in these studies, with a minimum of 10 mice per dose group. One group of mice was assigned as acclimated, or “non-stressed” controls. These control mice were transported from colony housing, where they were housed 3/cage in polycarbonate cages with access to food and water ad lib. to the procedure room. The mice were removed from their home cages and individually housed in 20 cm wide×20 cm deep×15 cm tall cages, equipped with a wire mesh bottom where they remained for a 16-18 hr period of acclimation to their novel environment. Mice were allowed access to food and water ad lib. during acclimation. The other groups of mice were assigned as non-acclimated, or “stressed” treatment groups. Each mouse in each group was weighed and vehicle, or test compound, was intragastrically administered by oral intubation in 0.5% methylcellulose. Mice were allowed access to water only ad lib. during the test period. After compound administrations, acclimated (control) as well as non-acclimated (stressed) mice were individually housed in a 20 cm wide×20 cm deep×15 cm tall cage, with a wire mesh bottom. An absorbant cardboard is placed beneath the cages. The number of fecal pellets excreted by each mouse was determined at hourly intervals following placement of the mice in the individual cages. Raw Data=# of fecal pellets/mouse/hr. […]

[2] = molecular target: T1, human delta subtype 2 opioid receptor (Homo sapiens, UniProt P41143); assay: Human Delta Opioid Receptor Binding Assay (CHO membranes, 3H-Naltrindole); conditions: read-out: hKi δ
T1 construct: purchased Perkin Elmer RBHODM400UA; host or cells: Chinese Hamster Ovary cells (recombinant expression)
Experimental: This assay is designed to test the ability of a compound to interfere with the binding of tritiated Naltrindole to the human delta subtype 2 opioid receptor. Membranes from Chinese Hamster Ovary cells expressing the human delta subtype 2 opioid receptor (Perkin Elmer #RBHODM400UA) are homogenized in assay buffer (50 mM Tris, pH 7.5 with 5 mM MgCl2) using a glass tissue grinder, Teflon pestle and a Steadfast Stirrer (Fisher Scientific). The concentration of membranes is adjusted to 100 μg/mL in assay buffer and 100 μL is dispensed into each well of the assay plate, a 96 well round bottom polypropylene plate. Compounds to be tested are solubilized in DMSO (Pierce), 10 mM, then diluted in assay buffer to 6× the desired final concentration. The ligand, ^3H-Naltrindole (Perkin Elmer #NET-1065) is also diluted in assay buffer to 6 nM. In a second 96 well round bottom polypropylene plate, known as the premix plate, 60 μL of the 6× compound is combined with 60 μL of 6 nM ^3H-Naltrindole. From this premix plate 50 μL is transferred to the assay plate containing the membranes, in duplicate. The assay plate is incubated for 30 min at room temperature. A GF/C 96 well filter plate (Perkin Elmer #6005174) is pretreated with 0.3% polyethylenimine for 30 min. The contents of the assay plate are filtered through the filter plate using a Packard Filtermate Harvester, and washed 3 times with 0.9% saline that is 4° C. The filter plate is dried, the underside sealed, and 30 μL Microscint20 (Packard #6013621) added to each well. A Topcount-NXT Microplate Scintillation Counter (Packard) is used to measure emitted energies in the range of 2.9 to 35 KeV. Results are compared to maximum binding, wells receiving no inhibitors. Nonspecific binding is determined in the presence of 1 μM unlabelled Naltrindole (Sigma #N115).

[3] = molecular target: T2, human mu opioid receptor (Homo sapiens, UniProt P35372); assay: Human Mu Opioid Receptor Binding Assay (CHO membranes, 3H-Damgo); conditions: read-out: hKi μ
T2 construct: purchased Perkin Elmer RBHOMM400UA; host or cells: Chinese Hamster Ovary cells (recombinant expression)
Summary of the method: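 Membranes from CHO cells expressing human mu opioid receptor, 300 μg/mL, in 50 mM Tris pH 7.5, 5 mM MgCl2. Incubated with compound and ³H-Damgo (3.6 nM before mixing) for 2 h at room temperature, filtered, counted by scintillation. Nonspecific binding with 1 μM unlabelled Damgo.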

[4] = 30 mg/kg oral, relative to acclimated control, read-out: Fecal Output cpd % control
[5] = 30 mg/kg oral, relative to novel environment stress (NES) vehicle group, read-out: Fecal Output cpd % NES
[6] = 30 mg/kg oral, relative to acclimated control
[7] = 30 mg/kg oral, relative to novel environment stress (NES) vehicle group

T1 sequence (P41143 whole entry): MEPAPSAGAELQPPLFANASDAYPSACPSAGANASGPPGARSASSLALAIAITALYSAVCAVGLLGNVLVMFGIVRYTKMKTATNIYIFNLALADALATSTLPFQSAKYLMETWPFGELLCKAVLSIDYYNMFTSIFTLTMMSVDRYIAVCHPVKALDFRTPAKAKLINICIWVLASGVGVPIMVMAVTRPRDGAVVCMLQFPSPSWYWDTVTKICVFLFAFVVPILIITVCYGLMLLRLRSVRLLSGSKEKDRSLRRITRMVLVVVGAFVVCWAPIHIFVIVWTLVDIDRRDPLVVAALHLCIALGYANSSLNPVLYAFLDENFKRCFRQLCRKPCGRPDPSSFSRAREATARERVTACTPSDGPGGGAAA
T2 sequence (P35372 whole entry): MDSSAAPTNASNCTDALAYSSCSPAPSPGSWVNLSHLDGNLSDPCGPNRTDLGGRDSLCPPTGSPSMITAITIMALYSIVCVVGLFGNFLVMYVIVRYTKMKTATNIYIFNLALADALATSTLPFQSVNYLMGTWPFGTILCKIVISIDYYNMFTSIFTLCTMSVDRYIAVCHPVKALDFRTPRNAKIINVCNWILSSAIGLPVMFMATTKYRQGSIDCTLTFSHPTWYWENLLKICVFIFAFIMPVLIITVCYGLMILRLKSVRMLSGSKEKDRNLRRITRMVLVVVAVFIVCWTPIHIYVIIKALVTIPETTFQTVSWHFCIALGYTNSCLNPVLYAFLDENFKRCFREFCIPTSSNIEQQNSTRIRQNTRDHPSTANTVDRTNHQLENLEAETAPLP

| Structure (SMILES) | Fecal Output (# pellets) cpd ([1]; 30 mg/kg oral) [pellets] | response vs control in vivo at 30 mg/kg [1, 4] [%] | response vs control in vivo at 30 mg/kg [1, 5] [%] | Ki [2] [nM] | Ki [3] [nM] | also measured |
| --- | --- | --- | --- | --- | --- | --- |
| COC(=O)c1ccc(CN(C(=O)[C@@H](N)Cc2c(C)cc(O)cc2C)[C@@H](C)c2nc(-c3ccccc3)c[nH]2)cc1 [Cpd 89] | 6.4 | 128 | 55.2 | 19.3 | 9.2 |  |
| Cc1cc(C(N)=O)cc(C)c1C[C@H](N)C(=O)N(C(C)c1ccccc1)[C@@H](C)c1nc(-c2ccccc2)c[nH]1 (single isomer, unassigned) [Cpd 112] | 7.2 |  |  | 135 | 9.5 | Fecal Output cpd % control [1, 6]: 100.0%; Fecal Output cpd % NES [1, 7]: 69.9% |
| Cc1cc(O)cc(C)c1C[C@H](N)C(=O)N(Cc1nc(-c2cccc(C(=O)O)c2)c(C)[nH]1)C(C)C [Cpd 133] | 9.9 | 180 | 81.8 | 108 | 11.5 |  |
| CC(=O)Nc1ccc(CN(C(=O)[C@@H](N)Cc2c(C)cc(O)cc2C)[C@@H](C)c2nc(-c3ccccc3)c[nH]2)cc1 [Cpd 79] | 7.1 | 197 | 97.3 | 11.5 | 1.7 |  |
| Cc1cc(O)cc(C)c1C[C@H](N)C(=O)N(Cc1ccc(Cl)cc1Cl)[C@@H](C)c1nc(-c2ccccc2)c[nH]1 [Cpd 103] | 10.2 | 140 | 79.1 | 9.7 | 23 |  |
| Cc1cc(C(N)=O)cc(C)c1C[C@H](N)C(=O)N(Cc1nc(-c2ccccc2)c[nH]1)[C@H](C)c1ccccc1 [Cpd 94] | 9.4 | 348 | 103 | 403 | 4.1 |  |
| Cc1cc(O)cc(C)c1C[C@H](N)C(=O)N(Cc1cccnc1)[C@@H](C)c1nc(-c2ccccc2)c[nH]1 [Cpd 92] | 9.2 | 256 | 82.9 | 5.4 | 0.25 |  |
| Cc1cc(O)cc(C)c1C[C@H](N)C(=O)N(Cc1ccc(Cl)c(Cl)c1)Cc1nc(-c2ccccc2)c[nH]1 [Cpd 87] | 10.3 | 141 | 79.8 | 38.9 | 12.6 |  |
| COc1ccc(CN(C(=O)[C@@H](N)Cc2c(C)cc(O)cc2C)[C@@H](C)c2nc(-c3ccccc3)c[nH]2)cc1OC [Cpd 102] | 3.4 | 59.6 | 22.7 | 5.2 | 3.5 | # of pellets, Compound (m) 3.0 [1]: 6.9; Fecal pellet output, Compound (% control) 3.0 [1]: 130.2 % control; Fecal pellet output, Compound (% NES) 3.0 [1]: 64.5 % NES; # of pellets, Compound (m) 10.0 [1]: 4.5; Fecal pellet output, Compound (% control) 10.0 [1]: 84.9 % control; Fecal pellet output, Compound (% NES) 10.0 [1]: 42.06 % NES; # of pellets, Compound (m) 30.0 [1]: 2.22; Fecal pellet output, Compound (% control) 30.0 [1]: 42 % control; Fecal pellet output, Compound (% NES) 30 [1]: 20.77 % NES |
| Cc1cc(O)cc(C)c1C[C@H](N)C(=O)N(Cc1ccncc1)[C@@H](C)c1nc(-c2ccccc2)c[nH]1 [Cpd 57] | 7.6 | 195 | 53.9 | 2.2 | 0.66 |  |
| Cc1cc(O)cc(C)c1C[C@H](N)C(=O)N(Cc1ccoc1)[C@@H](C)c1nc(-c2ccccc2)c[nH]1 [Cpd 55] | 8.3 | 213 | 58.9 | 44 | 1.8 |  |
| Cc1cc(O)cc(C)c1C[C@H](N)C(=O)N(Cc1ccccn1)[C@@H](C)c1nc(-c2ccccc2)c[nH]1 [Cpd 93] | 5.0 | 139 | 45 | 9.5 | 0.9 | # of pellets, Compound (m) 3.0 [1]: 6.2; Fecal pellet output, Compound (% control) 3.0 [1]: 229.6 % control; Fecal pellet output, Compound (% NES) 3.0 [1]: 74.7 % NES; # of pellets, Compound (m) 10.0 [1]: 5.5; Fecal pellet output, Compound (% control) 10.0 [1]: 203.7 % control; Fecal pellet output, Compound (% NES) 10.0 [1]: 66.27 % NES; # of pellets, Compound (m) 30.0 [1]: 3.2; Fecal pellet output, Compound (% control) 30.0 [1]: 119 % control; Fecal pellet output, Compound (% NES) 30 [1]: 38.55 % NES |
| Cc1cc(C(N)=O)cc(C)c1C[C@H](N)C(=O)N(C(C)C)[C@@H](CO)c1nc(-c2ccccc2)c[nH]1 [Cpd 85] | 7.9 | 146 | 65.8 | 1170 | 5.4 |  |
| Cc1cc(C(N)=O)cc(C)c1C[C@H](N)C(=O)N(C(C)c1ccccc1)[C@@H](C)c1nc(-c2ccccc2)c[nH]1 (single isomer, unassigned) [Cpd 111] | 4.4 |  |  | 307 | 6.4 | Fecal Output cpd % control [1, 6]: 60.8%; Fecal Output cpd % NES [1, 7]: 42.5% |
| CNc1ccc(CN(C(=O)C(N)Cc2c(C)cc(O)cc2C)C(C)c2nc(-c3ccccc3)c[nH]2)cc1 (centres unmarked) [Cpd 78] | 3.3 | 91.7 | 45.2 | 28.9 | 2.4 |  |
| Cc1cc(C(N)=O)cc(C)c1C[C@H](N)C(=O)N(C)[C@H](C)c1nc(-c2ccccc2)c[nH]1 [Cpd 144] | 11.5 | 311 | 84.6 | 251 | 1.3 |  |
| Cc1cc(C(N)=O)cc(C)c1C[C@H](N)C(=O)N(Cc1ccccc1)[C@@H](C)c1nc(-c2ccc(Cl)cc2)c(C)[nH]1 [Cpd 58] | 3.9 | 170 | 55.7 | 70 | 8.5 |  |
| Cc1cc(C(N)=O)cc(C)c1C[C@H](N)C(=O)N(C(C)C)[C@@H](C)c1nc(-c2ccccc2)c[nH]1 [Cpd 143] | 5.2 | 69.3 | 56.5 | 69 | 1.6 | Fecal Output (# pellets) cpd ([1]; 10 mg/kg oral): 9.1 pellets; response vs control in vivo at 10 mg/kg ([1]; 10 mg/kg oral, relative to acclimated control, read-out: Fecal Output cpd % control): 246%; response vs control in vivo at 10 mg/kg ([1]; 10 mg/kg oral, relative to novel environment stress (NES) vehicle group, read-out: Fecal Output cpd % NES): 66.9% |
| Cc1cc(O)cc(C)c1C[C@H](N)C(=O)N(Cc1cccc(C#N)c1)[C@@H](C)c1nc(-c2ccccc2)c[nH]1 [Cpd 91] | 8.9 | 287 | 69 | 15 | 4.8 |  |
